The values below come from PubChem BioAssay (NCI).

Each structure is given as a SMILES string.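 Results reflect a 48-hour exposure of cells in 96-well plates to compound at five concentrations. TGI is the concentration that stops growth completely.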

Among the test systems are RXF-631 renal; KM20L2 colon; XF 498 CNS; LXFL 529 NSCLC; DMS 114 small cell lung; M19-MEL melanoma; DMS 273 small cell lung; MDA-N; HOP-18 NSCLC.
Experiment in all cases: NCI tumour cell line growth inhibition, 48 h

In the case of `COc1cc(C)c(C(=O)/C=C/c2cc(OC)c(O)c(OC)c2)cc1O`, the TGI with RXF-631 renal worked out at 59.8 µM; in the assay with KM20L2 colon, 57.6 µM; in the assay with XF 498 CNS, 30.7 µM; in the assay with LXFL 529 NSCLC, 40.3 µM; in the assay with DMS 114 small cell lung, 72.3 µM; in the assay on M19-MEL melanoma it was 54 µM. The compound also had a TGI with DMS 273 small cell lung of 70.1 µM.

With `COc1cc2ccc(CC#N)cc2cc1OC`, the TGI with RXF-631 renal, in the assay with KM20L2 colon, in the assay on XF 498 CNS, in the assay with LXFL 529 NSCLC, in the assay on DMS 114 small cell lung and in the assay on M19-MEL melanoma was > 100 µM in each case. Moreover, the TGI in the assay with DMS 273 small cell lung is > 100 µM.

As to `Cn1c2ccccc2c2cc(-c3ccccc3)c3c(c21)C(=O)C=CC3=O`, the TGI in the assay with RXF-631 renal is > 100 µM; with XF 498 CNS, 32.1 µM; in the assay on LXFL 529 NSCLC, 18.6 µM; in the assay on DMS 114 small cell lung it was 19.8 µM; in the assay with MDA-N, 41.8 µM; in the assay with M19-MEL melanoma, 46.6 µM. Also, the TGI in the assay with DMS 273 small cell lung worked out at 40.6 µM.

As to `CCOC(=O)CNC(SC)=C(C#N)C#N`, the TGI in the assay on KM20L2 colon, in the assay with XF 498 CNS, in the assay on LXFL 529 NSCLC, with DMS 114 small cell lung, with M19-MEL melanoma and in the assay on DMS 273 small cell lung was > 100 µM throughout.

For `CC(C)O/C=C1\C(=O)C2(SCCS2)[C@H]2CCCC[C@@H]12`, the TGI in the assay on RXF-631 renal, in the assay with KM20L2 colon, in the assay on HOP-18 NSCLC, with LXFL 529 NSCLC, with M19-MEL melanoma and in the assay with DMS 273 small cell lung was > 100 µM each time.

`O=C(N/C(=C\c1ccc([N+](=O)[O-])cc1)c1nc2[nH]c(=S)[nH]c(=O)c2[nH]1)c1ccccc1`: the TGI in the assay on KM20L2 colon, with XF 498 CNS, in the assay with LXFL 529 NSCLC, in the assay with DMS 114 small cell lung and with M19-MEL melanoma was > 100 µM each time.

Take `C(=C1\CCC/C(=C/c2ccccc2)C1=NNc1ccccc1)/c1ccccc1`: the TGI in the assay with RXF-631 renal, with KM20L2 colon, with HOP-18 NSCLC, with LXFL 529 NSCLC, in the assay on DMS 114 small cell lung and with M19-MEL melanoma was > 100 µM throughout. For the same compound, the TGI with DMS 273 small cell lung was > 100 µM.

`CSC(=S)N(C)NC(=O)c1cccc(C(=O)NN(C)C(=S)SC)n1`: the TGI is > 100 µM in the assay with KM20L2 colon; > 100 µM in the assay on HOP-18 NSCLC; > 100 µM in the assay with LXFL 529 NSCLC; 17 µM in the assay with DMS 114 small cell lung; > 100 µM with M19-MEL melanoma; 54.1 µM with DMS 273 small cell lung.

`COc1cc(NCC(C#N)C#N)ccc1N=Nc1ccc([N+](=O)[O-])cc1`: the TGI in the assay on RXF-631 renal, in the assay with KM20L2 colon, in the assay with HOP-18 NSCLC, in the assay with LXFL 529 NSCLC, in the assay on DMS 114 small cell lung and in the assay on M19-MEL melanoma was > 100 µM throughout. The TGI with DMS 273 small cell lung was > 100 µM.

For the compound `O=C1C[C@@H](c2ccccc2)NCCCCN(O)CCCN1`, the TGI in the assay on MDA-N is > 100 µM.

Take `CC1=C(C(=O)Nc2ccccc2C)C(c2ccc(N(C)C)cc2)C(C(=O)Nc2ccccc2C)=C(C)N1`: the TGI with RXF-631 renal, with KM20L2 colon, in the assay on XF 498 CNS, in the assay on DMS 114 small cell lung, with M19-MEL melanoma and in the assay with DMS 273 small cell lung was > 100 µM throughout.

As for `CCCNC(=O)c1cc2ccccc2cc1C(=O)OC`, the TGI with RXF-631 renal, with KM20L2 colon, in the assay with XF 498 CNS, in the assay with HOP-18 NSCLC, with LXFL 529 NSCLC and in the assay on DMS 114 small cell lung was > 100 µM in each case. The TGI in the assay with M19-MEL melanoma and in the assay on DMS 273 small cell lung was > 100 µM in each case.

For `Cn1c(=O)c(C(c2ccccc2)c2c(O)c3ccccc3n(C)c2=O)c(O)c2ccccc21`, the TGI in the assay with RXF-631 renal, with KM20L2 colon, in the assay on XF 498 CNS, in the assay with HOP-18 NSCLC, in the assay on LXFL 529 NSCLC and in the assay with DMS 114 small cell lung was > 100 µM throughout. For the same compound, the TGI with M19-MEL melanoma and in the assay on DMS 273 small cell lung was > 100 µM throughout.

Take `O=C1c2cnccc2Cc2cccc3c2N1c1ccccc1S3`: the TGI in the assay on RXF-631 renal is > 100 µM; with KM20L2 colon, 34.8 µM; in the assay with XF 498 CNS it was 32.6 µM; in the assay on LXFL 529 NSCLC it was > 100 µM; with DMS 114 small cell lung, 73.6 µM; in the assay on M19-MEL melanoma, 86.7 µM. In the assay with DMS 273 small cell lung, the TGI was determined as 78.2 µM.

With `N#Cc1cc2cc3c4c(c2oc1=O)CCCN4CCC3`, the TGI in the assay with MDA-N is > 100 µM.

With `COc1cc(C2[C@H]3C(=O)N(c4ccc(Cc5ccc(N6C(=O)[C@@H]7ON(c8ccccc8)C(c8cc(OC)c(OC)c(OC)c8)[C@@H]7C6=O)cc5)cc4)C(=O)[C@H]3ON2c2ccccc2)cc(OC)c1OC` (some centres not stated), the TGI with RXF-631 renal, in the assay on KM20L2 colon, with HOP-18 NSCLC, in the assay on DMS 114 small cell lung, in the assay with M19-MEL melanoma and with DMS 273 small cell lung was > 100 µM in each case.

In the case of `Cc1cn(C2C=CC(=O)C(C)O2)c(=O)[nH]c1=O` (configuration not stated), the TGI is 28.5 µM with RXF-631 renal; 30.2 µM in the assay with KM20L2 colon; 26.4 µM with XF 498 CNS; 28.5 µM with HOP-18 NSCLC; 28.1 µM in the assay with LXFL 529 NSCLC; 30.1 µM in the assay on M19-MEL melanoma. Also, the TGI in the assay on DMS 273 small cell lung was 33.7 µM.
